Data published in patent publication US9284303B2, “Benzimidazole cannabinoid agonists bearing a substituted heterocyclic group” (priority 2006, dated 2016).

Experiments:
[1] = biological target: T1, human CB1 (hCB1) receptor (Homo sapiens, UniProt P21554); test: Inhibition of forskolin-activated cAMP production upon activation of hCB1 (HTRF), CHO-K1 cells; type: cell-based; conditions: CB1 pEC50, hCB1-CHO-K1 cells, forskolin-activated cAMP, pEC50=-log(EC50)
T1 construct: expressed in transfected cells; host or cells: CHO-K1
T1 sequence (P21554 whole entry): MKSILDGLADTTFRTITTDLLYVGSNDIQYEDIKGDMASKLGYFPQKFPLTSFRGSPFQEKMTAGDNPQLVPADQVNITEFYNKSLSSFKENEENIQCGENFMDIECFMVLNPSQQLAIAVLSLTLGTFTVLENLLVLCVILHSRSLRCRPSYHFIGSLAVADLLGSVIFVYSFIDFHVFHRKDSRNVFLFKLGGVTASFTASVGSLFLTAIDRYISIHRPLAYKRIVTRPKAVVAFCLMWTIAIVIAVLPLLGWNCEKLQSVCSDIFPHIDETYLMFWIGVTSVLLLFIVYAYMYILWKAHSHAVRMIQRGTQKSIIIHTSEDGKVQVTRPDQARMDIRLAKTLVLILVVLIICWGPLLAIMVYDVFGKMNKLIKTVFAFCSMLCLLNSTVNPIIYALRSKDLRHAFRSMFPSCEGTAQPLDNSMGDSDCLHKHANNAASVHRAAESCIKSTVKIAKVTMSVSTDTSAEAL
Method in brief: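 CHO-K1 cells stably expressing hCB1 (20,000/well) were in HBSS stimulation buffer (1 mM IBMX, 10 mM MgCl2, 0.1% BSA, pH 7.4), with 6 μM forskolin in the compound buffer, 30 min at room temperature in the dark. cAMP was read as HTRF 665/620 ratio, normalized to DMSO and CP55490. Outputs were pEC50 and inhibition at 10 μM relative to CP55490.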

[2] = biological target: T2, human CB2 (hCB2) receptor (Homo sapiens, UniProt P34972); test: Inhibition of forskolin-activated cAMP production upon activation of hCB2 (HTRF), CHO-K1 cells; type: cell-based; conditions: for ratio CB2 agonism over CB1 agonism: Table C-1, selectivity hCB2 over hCB1; for EC50: hCB2-CHO-K1 cells, forskolin-activated cAMP, pEC50=-log(EC50), read-out: CB2 pEC50 (converted); for ratio CB2 over CB1 agonism: Table C-3, comparison of art compounds A to E with compounds of the invention
T2 construct: expressed in transfected cells; host or cells: CHO-K1
T2 sequence (P34972 whole entry): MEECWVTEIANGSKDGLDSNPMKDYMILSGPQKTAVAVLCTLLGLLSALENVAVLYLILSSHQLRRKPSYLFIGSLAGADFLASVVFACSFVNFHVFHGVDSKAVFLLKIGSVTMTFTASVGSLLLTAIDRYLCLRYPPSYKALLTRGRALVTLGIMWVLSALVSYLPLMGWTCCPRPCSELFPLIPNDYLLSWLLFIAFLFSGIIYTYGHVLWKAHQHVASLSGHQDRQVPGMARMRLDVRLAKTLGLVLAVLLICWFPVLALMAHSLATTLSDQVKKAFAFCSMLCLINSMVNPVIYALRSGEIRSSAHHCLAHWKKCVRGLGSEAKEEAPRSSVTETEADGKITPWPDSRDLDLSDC

| SMILES | melting point [°C] | EC50 [1] [nM] | ratio CB2 agonism over CB1 agonism [2] | EC50 [2] [nM] | ratio CB2 over CB1 agonism [2] |
| --- | --- | --- | --- | --- | --- |
| CC(C)(C)c1nc2cc(S(=O)(=O)c3ccc(C(=O)N4CCOCC4)o3)ccc2n1CC1CCOCC1 [Co. No. 80] | 172.1 | 10500 | 2483 | 4.17 | – |
| CCC(CC)Cn1c(C(C)(C)C)nc2cc(S(=O)(=O)c3ccnc(F)c3)ccc21 [Co. No. 147] | 130.9 | > 10000 | >10471 | 0.955 | – |
| CC(=O)c1ccc(S(=O)(=O)c2ccc3c(c2)nc(C(C)(C)C)n3CC2CCOCC2)s1 [Co. No. 40] | 151 | 209 | 193 | 1.07 | – |
| Cc1cc(S(=O)(=O)c2ccc3c(c2)nc(CC(C)(C)C)n3CC2CCOCC2)ccn1 [Co. No. 24] | 207.1 | 891 | 407 | 2.19 | 407 |
| CC(C)(C)c1nc2cc(S(=O)(=O)c3cncc(C(N)=O)c3)ccc2n1CC1CCOCC1 [Co. No. 44] | 259 | 126 | 64 | 2 | – |
| CC(C)(C)c1nc2cc(S(=O)(=O)c3ccnc(F)c3)ccc2n1CCC1CCOCC1 [Co. No. 128] | 177.8 | > 10000 | >4786 | 2.09 | – |
| CC(C)(C)c1nc2cc(S(=O)(=O)c3ccc(O)nc3)ccc2n1CC1CCOCC1 [Co. No. 1] | 251 | > 10000 | >1995 | 5.01 | 1995 |
| Cn1cc(S(=O)(=O)c2ccc3c(c2)nc(C(C)(C)C)n3CC2CCOCC2)ccc1=O [Co. No. 28] | 170 | > 10000 | >3467 | 2.88 | 3467 |
